{"source": "ChEMBL document CHEMBL6114991", "about": "“Design, synthesis, and biological evaluation of novel quinoline carboxylic acid based styryl/alkyne hybrid molecule as a potent anti-adipogenic and antidyslipidemic agent via activation of Wnt/β-catenin pathway” (Eur J Med Chem, 2025)", "key": {"3T3-L1 [1]": {"test_system": "3T3-L1", "assay": "Inhibition of adipogenesis in mouse 3T3-L1 cells assessed as downregulation of FASN expression at 10 uM measured at upto 7 days by immunoblotting analysis", "assay_type": "functional, cell-based", "settings": "time <= 7.0 day"}, "3T3-L1 [2]": {"test_system": "3T3-L1", "assay": "Inhibition of adipogenesis in mouse 3T3-L1 cells assessed as downregulation of FASN expression at 10 uM measured at upto 3 days by immunoblotting analysis", "assay_type": "functional, cell-based", "settings": "time <= 3.0 day"}, "[3]": {"assay": "Toxicity in Golden Syrian hamster assessed as reduction in TC level in serum at 100 mg/kg, po administered for 7 days", "assay_type": "organism-based, Mesocricetus auratus", "settings": "in vivo, 168 h, time 7 day"}, "3T3-L1 [4]": {"test_system": "3T3-L1", "assay": "Inhibition of adipogenesis in mouse 3T3-L1 cells assessed as downregulation of CEBPalpha expression at 10 uM measured at upto 5 days by immunoblotting analysis", "assay_type": "functional, cell-based", "settings": "time <= 5.0 day"}, "3T3-L1 [5]": {"test_system": "3T3-L1", "assay": "Anti-adipogenic activity in mouse 3T3-L1 cells at 20 uM relative to control", "assay_type": "functional", "settings": "time 72 hrs"}, "Syrian golden hamster [6]": {"test_system": "Syrian golden hamster", "assay": "Anti-dyslipidemic activity in HFD-induced Golden Syrian hamster model assessed as decrease in PPARgamma level at 100 mg/kg, po administered for 7 days by Western blot analysis", "assay_type": "functional, organism-based", "settings": "Mesocricetus auratus, time 7.0 day"}, "3T3-L1 [7]": {"test_system": "3T3-L1", "assay": "Anti-adipogenic activity in mouse 3T3-L1 cells assessed as change in lipid content at 10 uM measured at 3 to 7 days", "assay_type": "functional, cell-based", "settings": "time 3-7 day"}, "3T3-L1 [8]": {"test_system": "3T3-L1", "assay": "Induction of cell cycle arrest in mouse 3T3-L1 cells assessed as reduction in number of cells at G1 phase at 10 uM incubated for 16 to 24 hrs by flow cytometry analysis", "assay_type": "functional, cell-based", "settings": "time 16-24 hrs"}, "3T3-L1 [9]": {"test_system": "3T3-L1", "assay": "Cytotoxicity against mouse 3T3-L1 cells assessed as cell viability at 10 uM incubated for 48 hrs by MTT assay", "assay_type": "toxicity, cell-based", "settings": "3t3-l1, 48 h"}, "3T3-L1 [10]": {"test_system": "3T3-L1", "assay": "Inhibition of adipogenesis in mouse 3T3-L1 cells assessed as downregulation of PPARgamma expression at 10 uM measured at upto 3 days by immunoblotting analysis", "assay_type": "functional, cell-based", "settings": "time <= 3.0 day"}, "Syrian golden hamster [11]": {"test_system": "Syrian golden hamster", "assay": "Anti-dyslipidemic activity in HFD-induced Golden Syrian hamster model assessed as decrease in CEBPalpha level at 100 mg/kg, po administered for 7 days by Western blot analysis", "assay_type": "functional, organism-based", "settings": "Mesocricetus auratus, time 7.0 day"}, "[12]": {"assay": "Toxicity in Golden Syrian hamster assessed as reduction in adipocyte hypertrophy at 100 mg/kg, po administered for 7 days", "assay_type": "organism-based, Mesocricetus auratus", "settings": "in vivo, 168 h, time 7 day"}, "3T3-L1 [13]": {"test_system": "3T3-L1", "assay": "Inhibition of adipogenesis in mouse 3T3-L1 cells assessed as downregulation of FASN expression at 10 uM measured at upto 5 days by immunoblotting analysis", "assay_type": "functional, cell-based", "settings": "time <= 5.0 day"}, "3T3-L1 [14]": {"test_system": "3T3-L1", "assay": "Anti-adipogenic activity in mouse 3T3-L1 cells assessed as reduction in lipid accumulation at 10 uM measured at upto 5 days", "assay_type": "functional, cell-based", "settings": "time <= 5.0 day"}}, "note": "Calls of active or inactive are those of the source. The calls are words filed in the database; no cut-off is given here.", "data": [{"molecule": "Cc1ccc(/C=C/c2ccc(-c3cc(C(=O)O)c4cc(F)ccc4n3)cc2)cc1", "values": [{"measurement": "inhibition", "setting": "3T3-L1 [1]", "result": "Active"}, {"measurement": "inhibition", "setting": "3T3-L1 [2]", "result": "Active"}, {"measurement": "Activity", "setting": "[3]", "result": "Non-toxic"}, {"measurement": "inhibition", "setting": "3T3-L1 [4]", "result": "Active"}, {"measurement": "Activity", "setting": "3T3-L1 [5]", "result": 64, "unit": "%"}, {"measurement": "Activity", "setting": "Syrian golden hamster [6]", "result": "Active"}, {"measurement": "Activity", "setting": "3T3-L1 [7]", "result": "Active"}, {"measurement": "Activity", "setting": "3T3-L1 [8]", "result": "Active"}, {"measurement": "Activity", "setting": "3T3-L1 [9]", "result": "Non-toxic"}, {"measurement": "inhibition", "setting": "3T3-L1 [10]", "result": "Active"}, {"measurement": "Activity", "setting": "Syrian golden hamster [11]", "result": "Active"}, {"measurement": "Activity", "setting": "[12]", "result": "Non-toxic"}, {"measurement": "inhibition", "setting": "3T3-L1 [13]", "result": "Active"}, {"measurement": "Activity", "setting": "3T3-L1 [14]", "result": "Active"}]}]}
